Source: PMC9928118, “Funneling modulatory peptide design with generative models: Discovery and characterization of disruptors of calcineurin protein-protein interactions” (PLOS Computational Biology, 2023)
Values belong to the sequence of their own block, whether it stands above or below them.

System: GST-tagged Cn
Experiment: PEPperPRINT peptide microarray binding assay with GST-tagged Cn
Method in brief: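 Qualitative binding: peptides printed on a PEPperPRINT microarray were incubated overnight at 4 °C with 1 mg/ml GST-tagged Cn, then detected with Alexa-Fluor 647 anti-GST antibody. Log fluorescence was baseline-corrected, averaged over duplicate spots, Z-normalized and averaged across five repeats.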

[1] = GST-tagged Cn, max over the chip locations
[2] = GST-tagged Cn, mean over the chip locations
[3] = GST-tagged Cn, max over the spots named in Location on chip
[4] = GST-tagged Cn, mean over the spots named in Location on chip
[5] = max over the chip locations listed for the peptide (two spots)
[6] = mean over the chip locations listed for the peptide (two spots)
[7] = max over the spots listed under Location on chip
[8] = mean over the spots listed under Location on chip
[9] = GST-tagged Cn, max over the spots on the chip (two locations)
[10] = GST-tagged Cn, mean over the spots on the chip (two locations)
[11] = GST-tagged Cn, max over the chip spots listed under Location on chip
[12] = GST-tagged Cn, mean over the chip spots listed under Location on chip

Chip Fluorescence (max) [1]: -0.8035
Chip Fluorescence (mean) [2]: -1.44
Sequence: HSKLIPKLSFQSPVHH [SeqRBMlowT_814]

Chip Fluorescence (max) [3]: 1.507
Chip Fluorescence (mean) [4]: 0.3571
Sequence: GASMCPAMSWQDCGQR [SeqSFB3_Iconisemion_striatum]

Chip Fluorescence (max) [5]: 10.3742
Chip Fluorescence (mean) [6]: 0.3512
Sequence: QSQSNPEITVTPPETE [SeqRIPOR2_Austrofundulus_limnaeus]

Chip Fluorescence (max) [7]: 2.618
Chip Fluorescence (mean) [8]: 0.6288
Sequence: AGCTVNNYSTNFAEND [Seqshuffled_9821]

Chip Fluorescence (max) [9]: 1.208
Chip Fluorescence (mean) [10]: -0.4648
Sequence: TFWTNPQFKVTLEEPD [SeqRBMlowT_2957]

Chip Fluorescence (max) [1]: -0.1972
Chip Fluorescence (mean) [2]: -1.194
Sequence: SSAAPPAINIDFAPTN [SeqRBMlowT_5045]

Chip Fluorescence (max) [1]: 0.05556
Chip Fluorescence (mean) [2]: -1.148
Sequence: ADEAAPEIVVSKPEHN [SeqRBMlowT_7698]

Chip Fluorescence (max) [11]: 0.7861
Chip Fluorescence (mean) [12]: -0.005549
Sequence: TGWTNPQFKLRLENDP [SeqRBM_4269]

Chip Fluorescence (max) [3]: 1.579
Chip Fluorescence (mean) [4]: 0.1538
Sequence: KKMAPPCINIDFAPEN [SeqRBMlowT_2474]

Chip Fluorescence (max) [11]: 0.9672
Chip Fluorescence (mean) [12]: 0.03589
Sequence: PSMAAPAINIDFAPTN [SeqRBMlowT_2463]

Chip Fluorescence (max) [7]: 2.813
Chip Fluorescence (mean) [8]: 0.6175
Sequence: RQPGQALLTLRGHSKS [SeqRBMlowT_7741]

Chip Fluorescence (max) [7]: 2.844
Chip Fluorescence (mean) [8]: 1.205
Sequence: TFWTNPQFRIHLEEED [SeqRBMlowT_251]

Chip Fluorescence (max) [3]: 1.445
Chip Fluorescence (mean) [4]: 0.04021
Sequence: PGLYDNALGIESFTLS [SeqRBMlowT_2801]

Chip Fluorescence (max) [9]: 1.316
Chip Fluorescence (mean) [10]: -0.7354
Sequence: RNPERPKLHLQGHLVA [SeqRBM_9016]

Chip Fluorescence (max) [1]: 0.238
Chip Fluorescence (mean) [2]: -1.007
Sequence: TFHREPQNRLYVLSAV [SeqRBM_456]

Chip Fluorescence (max) [7]: 2.722
Chip Fluorescence (mean) [8]: 1.008
Sequence: VVMHKMPKTGGWWHCP [Seqrandom_9963]

Chip Fluorescence (max) [5]: 7.93
Chip Fluorescence (mean) [6]: 2.436
Sequence: QSNSTPTITITPPSDA [SeqRBM_9156]

Chip Fluorescence (max) [5]: 4.515
Chip Fluorescence (mean) [6]: 0.06008
Sequence: RSYDVPVFLFTYLPNP [SeqRBM_7048]

Chip Fluorescence (max) [1]: 0.1471
Chip Fluorescence (mean) [2]: -0.7824
Sequence: TFWTNPQFRVTVTEPD [SeqRBMlowT_4663]

Chip Fluorescence (max) [1]: -0.2859
Chip Fluorescence (mean) [2]: -0.9089
Sequence: RNPGTPLLELKGHAAS [SeqRBMlowT_8729]

Chip Fluorescence (max) [11]: 0.8784
Chip Fluorescence (mean) [12]: -0.3746
Sequence: KPFECPSIQITSISPN [SeqNFATC3_Homo_sapiens]

Chip Fluorescence (max) [11]: 0.9409
Chip Fluorescence (mean) [12]: -0.6593
Sequence: NGPGTPSRQGQPAAPS [SeqRTS1_Penicillium_nalgiovense]

Chip Fluorescence (max) [9]: 1.118
Chip Fluorescence (mean) [10]: 0.1884
Sequence: PSMYQPHIIVKVAETE [SeqRBM_4049]

Chip Fluorescence (max) [9]: 1.2267
Chip Fluorescence (mean) [10]: -0.003433
Sequence: KAYMCPSMQFIDGGRR [SeqRBMlowT_9264]

Chip Fluorescence (max) [5]: 3.906
Chip Fluorescence (mean) [6]: 0.5831
Sequence: KERDVNYYIIHPVGSA [Seqshuffled_9799]

Chip Fluorescence (max) [3]: 1.328
Chip Fluorescence (mean) [4]: -0.3044
Sequence: RQPGQALLTLRGHSAP [SeqRBMlowT_5806]

Chip Fluorescence (max) [11]: 0.6726
Chip Fluorescence (mean) [12]: 0.4462
Sequence: KAYMCPFMQFQDGGRR [SeqRBMlowT_520]

Chip Fluorescence (max) [5]: 4.793
Chip Fluorescence (mean) [6]: 0.8161
Sequence: SVDKHPRVYVATSRED [SeqRBM_4749]

Chip Fluorescence (max) [11]: 0.3829
Chip Fluorescence (mean) [12]: -0.6837
Sequence: RNPGQALLTLRGHKAS [SeqRBMlowT_7787]

Chip Fluorescence (max) [11]: 0.6928
Chip Fluorescence (mean) [12]: -1.3023
Sequence: TFWTNPQYRITLTDVD [SeqRBMlowT_7188]

Chip Fluorescence (max) [7]: 2.584
Chip Fluorescence (mean) [8]: -0.1117
Sequence: DSLYQEVLGIGSFSLA [SeqCRZ1_Hypocrea_virens]

Chip Fluorescence (max) [7]: 2.778
Chip Fluorescence (mean) [8]: 0.8662
Sequence: HVSSSPRITITPTQHR [SeqRBMlowT_743]

Chip Fluorescence (max) [5]: 8.925
Chip Fluorescence (mean) [6]: 1.809
Sequence: IKLIIWNHNISNHGTY [SeqRBM_5872]

Chip Fluorescence (max) [1]: -0.4908
Chip Fluorescence (mean) [2]: -3.72
Sequence: KQMAPPAINIDFAPTN [SeqRBMlowT_1821]

Chip Fluorescence (max) [1]: 0.09132
Chip Fluorescence (mean) [2]: -0.8885
Sequence: RNPGQALLQLSGHKAP [SeqRBM_8761]

Chip Fluorescence (max) [11]: 0.42
Chip Fluorescence (mean) [12]: -0.6398
Sequence: RFRTELSFGFTGFGTD [Seqshuffled_9528]

Chip Fluorescence (max) [7]: 2.957
Chip Fluorescence (mean) [8]: -0.3215
Sequence: KAYMCSFMRFIEGGRR [SeqRBMlowT_3379]

Chip Fluorescence (max) [7]: 2.606
Chip Fluorescence (mean) [8]: -0.1576
Sequence: FETSHPTVQLKIPQLR [SeqLCORL_Pteropus_alecto]

Chip Fluorescence (max) [3]: 1.476
Chip Fluorescence (mean) [4]: 0.5558
Sequence: LKDEIPEVRLNIISSL [SeqRBMlowT_1013]

Chip Fluorescence (max) [3]: 1.52
Chip Fluorescence (mean) [4]: 0.4012
Sequence: TFWTNPQYRVKLEDPD [SeqRBMlowT_28]

Chip Fluorescence (max) [9]: 1.116
Chip Fluorescence (mean) [10]: -0.2464
Sequence: TFWSNPQFKIKLEEED [SeqRBMlowT_8507]

Chip Fluorescence (max) [7]: 2.5867
Chip Fluorescence (mean) [8]: 0.5553
Sequence: RTYINPFMQFTDGGRF [SeqRBMlowT_552]

Chip Fluorescence (max) [9]: 1.17
Chip Fluorescence (mean) [10]: -0.1022
Sequence: RNPGQALLELKGHSAQ [SeqRBMlowT_7734]

Chip Fluorescence (max) [5]: 4.106
Chip Fluorescence (mean) [6]: 0.6019
Sequence: PSALIPSLSMDPSMSE [SeqRBM_6067]

Chip Fluorescence (max) [3]: 1.865
Chip Fluorescence (mean) [4]: 0.2079
Sequence: PNLYENTLGIEQFTLS [SeqRBM_7749]

Chip Fluorescence (max) [3]: 1.645
Chip Fluorescence (mean) [4]: 1.054
Sequence: TFWMNPQFKVKLEEVD [SeqRBMlowT_6848]

Chip Fluorescence (max) [5]: 6.273
Chip Fluorescence (mean) [6]: 1.325
Sequence: ADEANPEITITPPELP [SeqRBMlowT_372]

Chip Fluorescence (max) [1]: -0.1231
Chip Fluorescence (mean) [2]: -1.5167
Sequence: ASMSPPCINIDYAPIS [SeqRBM_1607]

Chip Fluorescence (max) [7]: 2.696
Chip Fluorescence (mean) [8]: 0.6595
Sequence: LKDEFPEVRLNIISSL [SeqRBMlowT_1023]

Chip Fluorescence (max) [11]: 0.3751
Chip Fluorescence (mean) [12]: -0.8998
Sequence: TFWSNPQFTITLAEPD [SeqRBMlowT_8092]

Chip Fluorescence (max) [3]: 1.806
Chip Fluorescence (mean) [4]: 0.4598
Sequence: PSDDQPGIVVHPCEED [SeqRBMlowT_365]

Sequence: RTYINPFVTFVDGGNK [SeqRBMlowT_3664]
Chip Fluorescence (max) [1]: 0.3337
Chip Fluorescence (mean) [2]: -0.6971

Chip Fluorescence (max) [3]: 1.524
Chip Fluorescence (mean) [4]: 0.2674
Sequence: RQPGTALLTLRGHKKQ [SeqRBMlowT_5805]

Chip Fluorescence (max) [5]: 4.37
Chip Fluorescence (mean) [6]: 2.238
Sequence: LLDDVPDVVVHPPEED [SeqRBMlowT_144]

Chip Fluorescence (max) [11]: 0.8552
Chip Fluorescence (mean) [12]: 0.1691
Sequence: QGLYENVLGMEAFSVS [SeqRBM_7629]

Chip Fluorescence (max) [11]: 0.973
Chip Fluorescence (mean) [12]: 0.3644
Sequence: PSPDQPGIVVHTCEDD [SeqRBMlowT_9795]

Chip Fluorescence (max) [11]: 0.5324
Chip Fluorescence (mean) [12]: -0.206
Sequence: TFWSNPQFRITLEEPD [SeqRBMlowT_9100]

Chip Fluorescence (max) [7]: 2.77
Chip Fluorescence (mean) [8]: 0.3523
Sequence: TFWINPQIVITLADED [SeqRBMlowT_2933]

Chip Fluorescence (max) [1]: -0.0417
Chip Fluorescence (mean) [2]: -0.9527
Sequence: VSLKIPGSSAIDLTAS [SeqFLNA_Trichinella_nativa]

Chip Fluorescence (max) [7]: 2.835
Chip Fluorescence (mean) [8]: 0.5943
Sequence: SDEAGPRIVITATELP [SeqRBMlowT_4492]

Chip Fluorescence (max) [1]: -0.4316
Chip Fluorescence (mean) [2]: -1.3551
Sequence: GVPETPSRPVDPTAPS [SeqRBM_5086]

Chip Fluorescence (max) [7]: 2.7449
Chip Fluorescence (mean) [8]: 0.8824
Sequence: TFWTNPQFRITLEEVD [SeqRBMlowT_245]

Chip Fluorescence (max) [11]: 0.6781
Chip Fluorescence (mean) [12]: 0.06214
Sequence: DSLYQEVLGIRSFSLS [SeqRBM_8930]

Chip Fluorescence (max) [11]: 0.7466
Chip Fluorescence (mean) [12]: -0.6386
Sequence: TFWTNPQFKVKLEDPD [SeqRBMlowT_4293]

Chip Fluorescence (max) [3]: 1.609
Chip Fluorescence (mean) [4]: 0.5158
Sequence: TFWTNPQFRLKVVDPD [SeqRBMlowT_7375]

Chip Fluorescence (max) [11]: 0.4586
Chip Fluorescence (mean) [12]: 0.04317
Sequence: GTESTPSVVVHVCDSD [SeqRCN1_Desmodus_rotundus]

Chip Fluorescence (max) [11]: 0.3721
Chip Fluorescence (mean) [12]: -0.5491
Sequence: SFWANPQFIVSLEEPD [SeqRBMlowT_610]

Chip Fluorescence (max) [3]: 1.48
Chip Fluorescence (mean) [4]: -0.4167
Sequence: PFLAEQYMVVEEMTVS [Seqshuffled_9732]

Chip Fluorescence (max) [5]: 18.5398
Chip Fluorescence (mean) [6]: 3.2425
Sequence: ADEAIPEIVISKPEEP [SeqRBMlowT_2534]

Chip Fluorescence (max) [5]: 15.1807
Chip Fluorescence (mean) [6]: 1.275
Sequence: ASVSNPEITVTSAETE [SeqRBM_9489]

Chip Fluorescence (max) [3]: 1.718
Chip Fluorescence (mean) [4]: -0.1183
Sequence: LGRMSPQSTTQALPST [Seqshuffled_9332]

Chip Fluorescence (max) [5]: 3.993
Chip Fluorescence (mean) [6]: 1.569
Sequence: KSSSSPSASINVPQSN [SeqRBM_1871]

Chip Fluorescence (max) [7]: 2.946
Chip Fluorescence (mean) [8]: 1.658
Sequence: TFWTNPQFRITLEDPD [SeqRBMlowT_31]

Sequence: RSYINPFVTFLDHGHR [SeqSFB3_Blumeria_graminis]
Chip Fluorescence (max) [11]: 0.7568
Chip Fluorescence (mean) [12]: -0.5098

Chip Fluorescence (max) [5]: 6.762
Chip Fluorescence (mean) [6]: 1.072
Sequence: GPQDIPEVVVSPPEDD [SeqSLC4A7_Austrofundulus_limnaeus]

Chip Fluorescence (max) [7]: 2.929
Chip Fluorescence (mean) [8]: 1.69
Sequence: NICTSLTLVETDPTVY [Seqshuffled_9501]
